According to ChEMBL document CHEMBL5032491, “New Dibenzoquinoxalines Inhibit Triple-Negative Breast Cancer Growth by Dual Targeting of Topoisomerase 1 and the c-MYC G-Quadruplex” (J Med Chem, 2021):
The source made the active and inactive calls. The calls are words filed in the database; no cut-off is given here.

Tests used:
[1] = target: T1, DNA topoisomerase 1 (Homo sapiens) (UniProt P11387); test: Inhibition of human topoisomerase 1 assessed as DNA intercalation at 1.2 uM using relaxed pHOT-1 DNA as substrate preincubated with DNA for 10 mins followed by enzyme addition and measured after 30 mins by agarose gel electrophoresis; conditions: time 40.0 min
T1 sequence (whole entry): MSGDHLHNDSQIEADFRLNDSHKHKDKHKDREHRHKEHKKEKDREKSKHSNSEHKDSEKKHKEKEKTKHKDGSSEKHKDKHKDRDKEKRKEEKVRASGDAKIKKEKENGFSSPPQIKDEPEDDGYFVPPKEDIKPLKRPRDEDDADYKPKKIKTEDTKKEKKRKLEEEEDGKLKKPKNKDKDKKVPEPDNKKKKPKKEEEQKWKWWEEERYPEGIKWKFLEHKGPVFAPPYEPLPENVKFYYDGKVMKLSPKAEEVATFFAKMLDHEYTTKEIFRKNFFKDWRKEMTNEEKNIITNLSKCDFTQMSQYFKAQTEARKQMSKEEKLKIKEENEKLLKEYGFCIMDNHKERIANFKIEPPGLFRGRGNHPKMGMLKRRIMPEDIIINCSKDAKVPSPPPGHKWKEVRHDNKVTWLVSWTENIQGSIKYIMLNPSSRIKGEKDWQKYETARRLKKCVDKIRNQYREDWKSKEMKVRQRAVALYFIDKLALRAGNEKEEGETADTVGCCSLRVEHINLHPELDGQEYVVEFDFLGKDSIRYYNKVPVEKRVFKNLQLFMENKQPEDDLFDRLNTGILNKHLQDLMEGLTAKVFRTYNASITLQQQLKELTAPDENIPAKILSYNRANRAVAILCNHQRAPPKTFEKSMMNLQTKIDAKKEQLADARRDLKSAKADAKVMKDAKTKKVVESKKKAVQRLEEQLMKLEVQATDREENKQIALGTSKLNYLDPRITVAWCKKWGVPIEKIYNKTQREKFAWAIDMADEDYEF

[2] = test system: MDA-MB-231; test: Antiproliferative activity against human MDA-MB-231 cells assessed as inhibition of cell growth incubated for 24 hrs by CCK8 assay; type: functional, cell-based; conditions: MDA-MB-231, 24 h
[3] = target: T1, DNA topoisomerase 1 (Homo sapiens); test: Inhibition of human topoisomerase 1 mediated relaxation of supercoiled pHOT1 DNA at 5 to 20 uM incubated for 30 mins by agarose gel electrophoresis; conditions: dose 5-20 µM
[4] = test system: Quadruplex DNA; test: Inhibition of c-myc G4-quadruplex DNA transcriptional activity in human MDA-MB-231 cells incubated for 24 hrs by RT-PCR analysis; type: cell-based
[5] = test system: MDA-MB-231; test: Antiproliferative activity against human MDA-MB-231 cells assessed as inhibition in cell growth at 20 uM incubated for 24 hrs by CCK8 assay; type: functional, cell-based
[6] = test system: MDA-MB-231; test: Antitumor activity against human MDA-MB-231 cells xenografted in BALB/c mouse assessed as tumor growth inhibition measured at 2.5 mg/kg, ip administered every other day for 20 days; type: functional; conditions: time 20.0 day
[7] = Toxicity in human MDA-MB-231 cells xenografted BALB/c mouse assessed as body weight loss at 2.5 mg/kg, ip administered every other day for 20 days; type: organism-based; conditions: in vivo, 480 h, time 20 day

CC[n+]1c(-c2ccccc2)c2cc(N)ccc2c2ccc(N)cc21
inhibition [1]: Active

CN1CCN(c2ccc3c(c2)c2cc(N4CCN(C)CC4)ccc2c2nc4cc(F)c(F)cc4nc32)CC1
IC50 [2]: 2100 nM | inhibition [3]: Active

Cc1cc2nc3c4ccc(N5CCN(C)CC5)cc4c4cc(N5CCN(C)CC5)ccc4c3nc2cc1C
IC50 [2]: 2700 nM | inhibition [3]: Active | inhibition [4]: Active

COc1cccc2c1C(=O)c1c(O)c3c(c(O)c1C2=O)C[C@@](O)(C(=O)CO)C[C@@H]3O[C@H]1C[C@H](N)[C@H](O)[C@H](C)O1 [DOXORUBICIN]
Activity [5]: Active | Activity [6]: Dose-Dependent Effect | Activity [7]: Toxic
